Assay results as given in patent publication US10450549B2, “Aryloxyphenoxypropionate tolerance in turfrgass species and use of AAD1 as a selectable marker” (Dow AgroSciences, LLC, priority 2004, dated 2019).

Columns and labels:
AAD1 (v1) = biological target: T1, AAD1 (v1) (Sphingobium herbicidovorans, UniProt Q8KSC8); assay: HPLC analysis of herbicide degradation by AAD1 (v1) cell extract; format: biochemical
T1 construct: made in house; host or cells: E. coli BL-21 Star (DE3), plasmid pDAB3203
T1 sequence (Q8KSC8 whole entry): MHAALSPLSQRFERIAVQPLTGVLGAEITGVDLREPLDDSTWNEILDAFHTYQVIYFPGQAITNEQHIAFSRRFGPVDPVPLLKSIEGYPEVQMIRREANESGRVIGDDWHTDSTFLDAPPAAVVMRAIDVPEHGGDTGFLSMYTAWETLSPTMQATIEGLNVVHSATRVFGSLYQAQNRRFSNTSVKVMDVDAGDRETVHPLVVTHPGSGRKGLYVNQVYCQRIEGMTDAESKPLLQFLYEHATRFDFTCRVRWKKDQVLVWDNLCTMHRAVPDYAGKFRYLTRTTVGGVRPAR

[1] = test system: Kentucky bluegrass cv Shamrock callus; assay: Callus selection conditions with quizalofop and haloxyfop: Kentucky bluegrass; format: cell-based
Method: (§1) Selection conditions for creeping bentgrass cv Crenshaw and Kentucky bluegrass cv Shamrock were established using the grass-active herbicides, quizalofop and haloxyfop. Concentrations of quizalofop and haloxyfop ranged from 0 to 300 nM dissolved in defined callus maintenance media for each species. Callus tissue, derived from mature seeds of each species or cultivar, was used in the experiment. In the case of creeping bentgrass cv Crenshaw, calli maintained on CBG-3 medium were transferred to plates of CBG-3 medium containing either haloxyfop or quizalofop at 0, 50, 100, 150, 200, 250, and 300 nM final concentrations. Visual observations (growth of callus and development of necrosis) were made over a period of 1.5 months. For Kentucky bluegrass cv Shamrock and experimental line A98, calli maintained on KBG-2 were transferred to plates of KBG-2 medium containing 0, 50, 100, 150, 200, 250, and 300 nM final concentrations of the herbicides. Visual observations of callus growth and necrosis were made over a 2.5 month period. […] The calli became necrotic at lower concentrations of quizalofop relative to haloxyfop and the response was more rapid. […]

[2] = test system: creeping bentgrass cv Crenshaw callus; assay: Callus selection conditions with quizalofop and haloxyfop: creeping bentgrass; format: cell-based, Agrostis stolonifera
Method: as §1

[3] = test system: Hi-II corn grown from seed; assay: Lethal dose of AOPP herbicides on non-transformed Hi-II corn
[4] = test system: non-transformed (NT) and seed-derived (WT) creeping bentgrass; assay: Quizalofop-p-ethyl postemergence on non-transformed / seed-derived creeping bentgrass controls; format: in vivo, Agrostis stolonifera L. var. palustris
Method: (§2) Selected T0 plants were sprayed with quizalofop-p-ethyl (Assure II®, DUPONT, Wilmington, Del.) at rates ranging from 60 to 2,240 g ae/ha. […] This rate also controls susceptible monocot weed species. Measured amounts were placed individually in 25 mL glass vials and dissolved in a 4 mL volume of 1.0% (v/v) Agri-Dex® Crop Oil Concentrate (COC) from HELENA CHEMICAL (Collierville, Tenn.). Application solutions were prepared by serial dilution of the highest rate applied. One-half the volume of the highest rate stock solution (2 mL) was transferred to a clean 25 mL vial containing an equal volume of 1% COC and the diluted solution was mixed. Additional dilutions were prepared similarly by removing one-half the volume of the previous concentration (2 mL), and adding to an equal volume of 1% COC and mixing. When preparing the lowest concentration, the remaining one-half volume was discarded. All 2 mL stock solutions were further diluted by adding 10 mL aqueous mixture of 1.0% (v/v) COC, so that the final spray solutions were 12 mL in volume and contained 1.0% (v/v) COC.
(§3) Spray solutions were applied to the plant material with an overhead Mandel™ track sprayer equipped with a 8002E nozzles calibrated to deliver 187 L/ha over an application area of 0.503 square meters (m^2) at a spray height of 18 inches (46 cm) above average plant canopy height. Control plants were sprayed in the same manner with the COC blank.
(§4) The treated plants and control plants were placed in a greenhouse, and watered by sub-irrigation to prevent wash-off of the test compounds. At various times after application, the condition of the test plants as compared with that of the untreated plants was determined visually and scored on a scale of 0 to 100 percent (where 0 corresponds to no injury or growth inhibition and 100 corresponds to complete kill). Regenerated, non-transformed (NT) ‘Crenshaw’ or elite line 2905-2 creeping bentgrass plants and/or seed-derived clonally propagated plants served as quizalofop sensitive controls.

[5] = test system: AAD1-transformed T0 ‘Crenshaw’ creeping bentgrass events (pDAB3878, pDAB5042); assay: Quizalofop-p-ethyl postemergence on AAD1-transformed T0 Crenshaw creeping bentgrass, visual % injury; format: in vivo, Agrostis stolonifera L. var. palustris
Method: After molecular confirmation was utilized to identify transgenic events, a number of transgenic events were tested for herbicide tolerance. Specific isolated transgenic events were selected and maintained vegetatively through division of the crowns and replanting the clonal pieces into fresh growth medium. Clonally propagated plants were maintained by periodic “mowing” of vegetative tissues.
Growth medium was prepared by mixing Promix® and sand in a 2 to 1 ratio. The medium was contained in plastic pots with a surface area of 84.6 square centimeters (cm^2). When required to maintain plant health, a fungicide, insecticide, and/or other chemical or physical treatment was applied to stock plants. The plants were maintained in a greenhouse with an approximate 14 hour photoperiod which was maintained at 24-27° C. during the day and 22-25° C. during the night. Nutrients (Peters Excel® 15-5-15 5-Ca 2-Mg and iron chelate) were applied in the irrigation solution as needed, and water was added on a regular basis. Supplemental lighting was provided with overhead metal halide 1000-Watt lamps when photosynthetically active radiation (PAR) dropped below 500.
as §2, §3, §4

O=C(O)COc1ccc(Cl)cc1Cl [2,4-D, 2,4-dichlorophenoxyacetic acid]
conversion of 2,4-D to DCP (AAD1 (v1); partially purified proteins, in vitro): 50-100% | 2,4-D degraded to DCP as measured by HPLC (AAD1 (v1); regardless of assay conditions (longer incubations, more enzyme)): 50-75%

Nc1c(Cl)c(F)nc(OCC(=O)O)c1Cl [Fluroxypyr]
enzyme activity on substrate (HPLC) (AAD1 (v1); AAD1 (v1) cell extract, same conditions as 2,4-D): No enzyme activity was detected

CC(Oc1ccc(Oc2ncc(C(F)(F)F)cc2Cl)cc1)C(=O)O (stereo not drawn) [haloxyfop]
concentration needed to kill all calli [1]: 300 nM | concentration sufficient to kill callus within six weeks [2]: 250 nM | lethal dose ([3]; Gallant super + 1% COC (v/v)): 8.8 g ae/ha) | rate that effectively kills (>95% injury) three to four leaf Hi-II corn ([3]; postemergence, commercial formulations): 8.8 g ae/ha

CCOC(=O)[C@@H](C)Oc1ccc(Oc2cnc3cc(Cl)ccc3n2)cc1 [quizalofop-p-ethyl]
Visual Injury 39 DAA ([4]; 240 g ae/ha, regenerated non-transformed control NT1): 95% | injury on non-transformed controls ([4]; both rates (120 and 480 g ae/ha)): ≥ 80% | Mean % Injury (SE) ([4]; non-transformed control NT1, 120 g ae/ha, 11 DAA): 83 (3) % | Mean % Injury (SE) ([4]; non-transformed control NT1, 120 g ae/ha, 14 DAA): 88 (3) % | Mean % Injury (SE) ([4]; non-transformed control NT1, 120 g ae/ha, 20 DAA): 90 (0) % | Mean % Injury (SE) ([4]; non-transformed control NT1, 480 g ae/ha, 11 DAA): 85 (0) % | Mean % Injury (SE) ([4]; non-transformed control NT1, 480 g ae/ha, 14 DAA): 90 (0) % | Mean % Injury (SE) ([4]; non-transformed control NT1, 480 g ae/ha, 20 DAA): 97 (2) % | Mean % Injury (SE) ([4]; non-transformed control NT2, 120 g ae/ha, 11 DAA): 80 (0) % | Mean % Injury (SE) ([4]; non-transformed control NT2, 120 g ae/ha, 14 DAA): 90 (0) % | Mean % Injury (SE) ([4]; non-transformed control NT2, 120 g ae/ha, 20 DAA): 93 (3) % | Mean % Injury (SE) ([4]; non-transformed control NT2, 480 g ae/ha, 11 DAA): 90 (0) % | Mean % Injury (SE) ([4]; non-transformed control NT2, 480 g ae/ha, 14 DAA): 90 (0) % | Mean % Injury (SE) ([4]; non-transformed control NT2, 480 g ae/ha, 20 DAA): 97 (2) % | GR90 (herbicide rate which produces 90% injury and/or growth inhibition) ([4]; seed grown plants): approximately 60 g ae/ha | injury of events CBG12 and CBG23 ([5]; 120 g ae/ha): uninjured | injury of events CBG12 and CBG23 ([5]; 480 g ae/ha): less than 10% | Mean % Injury (SE) ([5]; event CBG2, 120 g ae/ha, 11 DAA): 30 (0) % | Mean % Injury (SE) ([5]; event CBG2, 120 g ae/ha, 14 DAA): 30 (0) % | Mean % Injury (SE) ([5]; event CBG2, 120 g ae/ha, 20 DAA): 25 (0) % | Mean % Injury (SE) ([5]; event CBG2, 480 g ae/ha, 11 DAA): 45% | Mean % Injury (SE) ([5]; event CBG2, 480 g ae/ha, 14 DAA): 45% | Mean % Injury (SE) ([5]; event CBG2, 480 g ae/ha, 20 DAA): 40% | Mean % Injury (SE) ([5]; event CBG4, 120 g ae/ha, 11 DAA): 70 (0) % | Mean % Injury (SE) ([5]; event CBG4, 120 g ae/ha, 14 DAA): 85 (0) % | Mean % Injury (SE) ([5]; event CBG4, 120 g ae/ha, 20 DAA): 90 (3) % | Mean % Injury (SE) ([5]; event CBG5, 120 g ae/ha, 11 DAA): 32 (6) % | Mean % Injury (SE) ([5]; event CBG5, 120 g ae/ha, 14 DAA): 42 (8) % | Mean % Injury (SE) ([5]; event CBG5, 120 g ae/ha, 20 DAA): 23 (7) % | Mean % Injury (SE) ([5]; event CBG5, 480 g ae/ha, 11 DAA): 30 (5) % | Mean % Injury (SE) ([5]; event CBG5, 480 g ae/ha, 14 DAA): 30 (5) % | Mean % Injury (SE) ([5]; event CBG5, 480 g ae/ha, 20 DAA): 10 (0) % | Mean % Injury (SE) ([5]; event CBG12, 120 g ae/ha, 11 DAA): 0 (0) % | Mean % Injury (SE) ([5]; event CBG12, 120 g ae/ha, 14 DAA): 0 (0) % | Mean % Injury (SE) ([5]; event CBG12, 120 g ae/ha, 20 DAA): 0 (0) % | Mean % Injury (SE) ([5]; event CBG12, 480 g ae/ha, 11 DAA): 5 (3) % | Mean % Injury (SE) ([5]; event CBG12, 480 g ae/ha, 14 DAA): 5 (3) % | Mean % Injury (SE) ([5]; event CBG12, 480 g ae/ha, 20 DAA): 5 (0) % | Mean % Injury (SE) ([5]; event CBG14, 120 g ae/ha, 11 DAA): 15 (5) % | Mean % Injury (SE) ([5]; event CBG14, 120 g ae/ha, 14 DAA): 18 (3) % | Mean % Injury (SE) ([5]; event CBG14, 120 g ae/ha, 20 DAA): 5 (5) % | Mean % Injury (SE) ([5]; event CBG14, 480 g ae/ha, 11 DAA): 30% | Mean % Injury (SE) ([5]; event CBG14, 480 g ae/ha, 14 DAA): 25% | Mean % Injury (SE) ([5]; event CBG14, 480 g ae/ha, 20 DAA): 15% | Mean % Injury (SE) ([5]; event CBG23, 120 g ae/ha, 11 DAA): 0 (0) % | Mean % Injury (SE) ([5]; event CBG23, 120 g ae/ha, 14 DAA): 0 (0) % | Mean % Injury (SE) ([5]; event CBG23, 120 g ae/ha, 20 DAA): 0 (0) % | Mean % Injury (SE) ([5]; event CBG23, 480 g ae/ha, 11 DAA): 7 (2) % | Mean % Injury (SE) ([5]; event CBG23, 480 g ae/ha, 14 DAA): 7 (3) % | Mean % Injury (SE) ([5]; event CBG23, 480 g ae/ha, 20 DAA): 0 (0) % | Mean % Injury (SE) ([5]; event CBG27, 120 g ae/ha, 11 DAA): 68 (3) % | Mean % Injury (SE) ([5]; event CBG27, 120 g ae/ha, 14 DAA): 75 (5) % | Mean % Injury (SE) ([5]; event CBG27, 120 g ae/ha, 20 DAA): 75 (5) % | Mean % Injury (SE) ([5]; event CBG27, 480 g ae/ha, 11 DAA): 85% | Mean % Injury (SE) ([5]; event CBG27, 480 g ae/ha, 14 DAA): 85% | Mean % Injury (SE) ([5]; event CBG27, 480 g ae/ha, 20 DAA): 85% | Mean % Injury (SE) ([5]; event CBG31, 120 g ae/ha, 11 DAA): 0% | Mean % Injury (SE) ([5]; event CBG31, 120 g ae/ha, 14 DAA): 5% | Mean % Injury (SE) ([5]; event CBG31, 120 g ae/ha, 20 DAA): 0% | Mean % Injury (SE) ([5]; event CBG32, 120 g ae/ha, 11 DAA): 5 (0) % | Mean % Injury (SE) ([5]; event CBG32, 120 g ae/ha, 14 DAA): 0 (0) % | Mean % Injury (SE) ([5]; event CBG32, 120 g ae/ha, 20 DAA): 0 (0) % | Mean % Injury (SE) ([5]; event CBG32, 480 g ae/ha, 11 DAA): 20% | Mean % Injury (SE) ([5]; event CBG32, 480 g ae/ha, 14 DAA): 20% | Mean % Injury (SE) ([5]; event CBG32, 480 g ae/ha, 20 DAA): 5% | Mean % Injury (SE) ([5]; event CBG33, 120 g ae/ha, 11 DAA): 8 (3) % | Mean % Injury (SE) ([5]; event CBG33, 120 g ae/ha, 14 DAA): 10 (0) % | Mean % Injury (SE) ([5]; event CBG33, 120 g ae/ha, 20 DAA): 5 (0) % | Mean % Injury (SE) ([5]; event CBG33, 480 g ae/ha, 11 DAA): 15% | Mean % Injury (SE) ([5]; event CBG33, 480 g ae/ha, 14 DAA): 15% | Mean % Injury (SE) ([5]; event CBG33, 480 g ae/ha, 20 DAA): 15% | Mean % Injury (SE) ([5]; event CBG38, 120 g ae/ha, 11 DAA): 14 (1) % | Mean % Injury (SE) ([5]; event CBG38, 120 g ae/ha, 14 DAA): 13 (3) % | Mean % Injury (SE) ([5]; event CBG38, 120 g ae/ha, 20 DAA): 6 (1) % | Mean % Injury (SE) ([5]; event CBG38, 480 g ae/ha, 11 DAA): 22 (4) % | Mean % Injury (SE) ([5]; event CBG38, 480 g ae/ha, 14 DAA): 22 (4) % | Mean % Injury (SE) ([5]; event CBG38, 480 g ae/ha, 20 DAA): 13 (2) %
